# Measurements reported in PubChem BioAssay AID2060492 (Molecular Pharmacology Branch, DTP, NCI, 2025).
# System: 695427-040-R-J1-PDC complex spheroids, viability percent T/C
# Test: Anticancer human tumor 695427-040-R-J1-PDC patient-derived colon adenocarcinoma cell line growth inhibition [GQUAD]
# Details: for IC50: curve of first compound; for viability, T/C: stronger effect = lower value
# In short: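 Multi-cell-type spheroids of tumor cells with HUVEC and mesenchymal stem cells, treated with drug combinations. Concentrations descend in half-log steps from near clinical Cmax, or from 10 microM where Cmax is unknown; viability read-out.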
# [1] = second compound 0.0316 µM, first compound 0.0316 µM
# [2] = second compound 0.0316 µM, first compound 0.1 µM
# [3] = second compound 0.0316 µM, first compound 0.316 µM
# [4] = second compound 0.0316 µM, first compound 1 µM
# [5] = second compound 0.0316 µM, first compound 3.16 µM
# [6] = second compound 0.0316 µM, first compound 10 µM
# [7] = second compound 0.1 µM, first compound 0.0316 µM
# [8] = second compound 0.1 µM, first compound 0.1 µM
# [9] = second compound 0.1 µM, first compound 0.316 µM
# [10] = second compound 0.1 µM, first compound 1 µM
# [11] = second compound 0.1 µM, first compound 3.16 µM
# [12] = second compound 0.1 µM, first compound 10 µM
# [13] = second compound 0.316 µM, first compound 0.0316 µM
# [14] = second compound 0.316 µM, first compound 0.1 µM
# [15] = second compound 0.316 µM, first compound 0.316 µM
# [16] = second compound 0.316 µM, first compound 1 µM
# [17] = second compound 0.316 µM, first compound 3.16 µM
# [18] = second compound 0.316 µM, first compound 10 µM
# [19] = second compound 1 µM, first compound 0.0316 µM
# [20] = second compound 1 µM, first compound 0.1 µM
# [21] = second compound 1 µM, first compound 0.316 µM
# [22] = second compound 1 µM, first compound 1 µM
# [23] = second compound 1 µM, first compound 3.16 µM
# [24] = second compound 1 µM, first compound 10 µM
# [25] = second compound 3.16 µM, first compound 0.0316 µM
# [26] = second compound 3.16 µM, first compound 0.1 µM
# [27] = second compound 3.16 µM, first compound 0.316 µM
# [28] = second compound 3.16 µM, first compound 1 µM
# [29] = second compound 3.16 µM, first compound 3.16 µM
# [30] = second compound 3.16 µM, first compound 10 µM
# [31] = second compound 10 µM, first compound 0.0316 µM
# [32] = second compound 10 µM, first compound 0.1 µM
# [33] = second compound 10 µM, first compound 0.316 µM
# [34] = second compound 10 µM, first compound 1 µM
# [35] = second compound 10 µM, first compound 3.16 µM
# [36] = second compound 10 µM, first compound 10 µM
# 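Further: spheroids exposed to compounds for seven days before readout.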
smiles,measurement,setting,value
C=CCn1c(=O)c2cnc(Nc3ccc(N4CCN(C)CC4)cc3)nc2n1-c1cccc(C(C)(C)O)n1 + CN(C)c1ccc(Nc2c3ccc(NC(=O)CCN4CCCC4)cc3nc3cc(NC(=O)CCN4CCCC4)ccc23)cc1,IC50,second compound 0.0316 µM,> 10 µM
same,IC50,second compound 0.1 µM,> 10 µM
same,IC50,second compound 0.316 µM,> 10 µM
same,IC50,second compound 1 µM,> 10 µM
same,IC50,second compound 3.16 µM,8.77 µM
same,IC50,second compound 10 µM,5.2 µM
same,"viability, T/C",[1],104%
same,"viability, T/C",[2],104%
same,"viability, T/C",[3],87.5%
same,"viability, T/C",[4],83.2%
same,"viability, T/C",[5],66.6%
same,"viability, T/C",[6],61.7%
same,"viability, T/C",[7],97.8%
same,"viability, T/C",[8],93.9%
same,"viability, T/C",[9],93.2%
same,"viability, T/C",[10],77.4%
same,"viability, T/C",[11],71.2%
same,"viability, T/C",[12],59.3%
same,"viability, T/C",[13],101%
same,"viability, T/C",[14],89.1%
same,"viability, T/C",[15],85.9%
same,"viability, T/C",[16],85.2%
same,"viability, T/C",[17],72.8%
same,"viability, T/C",[18],53.3%
same,"viability, T/C",[19],95.5%
same,"viability, T/C",[20],103%
same,"viability, T/C",[21],81.9%
same,"viability, T/C",[22],77.2%
same,"viability, T/C",[23],66.9%
same,"viability, T/C",[24],52.3%
same,"viability, T/C",[25],95.2%
same,"viability, T/C",[26],91.3%
same,"viability, T/C",[27],87.9%
same,"viability, T/C",[28],80.9%
same,"viability, T/C",[29],63.8%
same,"viability, T/C",[30],48.3%
same,"viability, T/C",[31],91.6%
same,"viability, T/C",[32],84.1%
same,"viability, T/C",[33],82.3%
same,"viability, T/C",[34],67.8%
same,"viability, T/C",[35],56.4%
same,"viability, T/C",[36],42%
CC1COCCN1c1cc(-c2ccnn2C)c2ccnc(-c3ccn[nH]3)c2n1 (stereo not drawn) + Cc1[nH]c2ccc(F)cc2c1-c1nc2c3cccnc3c3ncccc3c2[nH]1,IC50,second compound 0.0316 µM,0.289 µM
same,IC50,second compound 0.1 µM,0.271 µM
same,IC50,second compound 0.316 µM,0.259 µM
same,IC50,second compound 1 µM,0.136 µM
same,IC50,second compound 3.16 µM,0.0564 µM
same,IC50,second compound 10 µM,0.0697 µM
same,"viability, T/C",[1],86.8%
same,"viability, T/C",[2],63.2%
same,"viability, T/C",[3],47.6%
same,"viability, T/C",[4],42%
same,"viability, T/C",[5],29.8%
same,"viability, T/C",[6],27.2%
same,"viability, T/C",[7],91.9%
same,"viability, T/C",[8],63.6%
same,"viability, T/C",[9],53.3%
same,"viability, T/C",[10],30.3%
same,"viability, T/C",[11],34.9%
same,"viability, T/C",[12],30.4%
same,"viability, T/C",[13],78.5%
same,"viability, T/C",[14],75.5%
same,"viability, T/C",[15],44.7%
same,"viability, T/C",[16],28.5%
same,"viability, T/C",[17],28.5%
same,"viability, T/C",[18],30.1%
same,"viability, T/C",[19],68.5%
same,"viability, T/C",[20],54.5%
same,"viability, T/C",[21],37.5%
same,"viability, T/C",[22],31.8%
same,"viability, T/C",[23],31.4%
same,"viability, T/C",[24],29.7%
same,"viability, T/C",[25],57.8%
same,"viability, T/C",[26],41.7%
same,"viability, T/C",[27],34.2%
same,"viability, T/C",[28],31%
same,"viability, T/C",[29],25.5%
same,"viability, T/C",[30],27.1%
same,"viability, T/C",[31],57.9%
same,"viability, T/C",[32],47.5%
same,"viability, T/C",[33],35.4%
same,"viability, T/C",[34],29.6%
same,"viability, T/C",[35],27.3%
same,"viability, T/C",[36],20.7%
CC1COCCN1c1cc(C2(S(C)(=N)=O)CC2)nc(-c2ccnc3[nH]ccc23)n1 (stereo not drawn) + Cc1[nH]c2ccc(F)cc2c1-c1nc2c3cccnc3c3ncccc3c2[nH]1,IC50,second compound 0.0316 µM,> 10 µM
same,IC50,second compound 0.1 µM,> 10 µM
same,IC50,second compound 0.316 µM,> 10 µM
same,IC50,second compound 1 µM,> 10 µM
same,IC50,second compound 3.16 µM,> 10 µM
same,IC50,second compound 10 µM,> 10 µM
same,"viability, T/C",[1],99.3%
same,"viability, T/C",[2],101%
same,"viability, T/C",[3],87.6%
same,"viability, T/C",[4],73.9%
same,"viability, T/C",[5],76.9%
same,"viability, T/C",[6],57.4%
same,"viability, T/C",[7],103%
same,"viability, T/C",[8],72.5%
same,"viability, T/C",[9],102%
same,"viability, T/C",[10],89.3%
same,"viability, T/C",[11],73.2%
same,"viability, T/C",[12],62.2%
same,"viability, T/C",[13],87.9%
same,"viability, T/C",[14],80.1%
same,"viability, T/C",[15],84.8%
same,"viability, T/C",[16],84.9%
same,"viability, T/C",[17],74.6%
same,"viability, T/C",[18],61.5%
same,"viability, T/C",[19],70.5%
same,"viability, T/C",[20],71.7%
same,"viability, T/C",[21],70.3%
same,"viability, T/C",[22],97%
same,"viability, T/C",[23],83%
same,"viability, T/C",[24],65.8%
same,"viability, T/C",[25],61.9%
same,"viability, T/C",[26],84%
same,"viability, T/C",[27],75.9%
same,"viability, T/C",[28],81.8%
same,"viability, T/C",[29],71.9%
same,"viability, T/C",[30],61.2%
same,"viability, T/C",[31],66%
same,"viability, T/C",[32],67.9%
same,"viability, T/C",[33],80.8%
same,"viability, T/C",[34],82%
same,"viability, T/C",[35],67.6%
same,"viability, T/C",[36],54.3%
COc1ccc([C@@H](O)c2cc(-c3ncnc4cc(N5CCOCC5)ccc34)c(F)cc2Cl)nn1 + Cc1[nH]c2ccc(F)cc2c1-c1nc2c3cccnc3c3ncccc3c2[nH]1,IC50,second compound 0.0316 µM,3.62 µM
same,IC50,second compound 0.1 µM,> 10 µM
same,IC50,second compound 0.316 µM,> 10 µM
same,IC50,second compound 1 µM,9.52 µM
same,IC50,second compound 3.16 µM,5.46 µM
same,IC50,second compound 10 µM,4.23 µM
same,"viability, T/C",[1],105%
same,"viability, T/C",[2],82.6%
same,"viability, T/C",[3],80.9%
same,"viability, T/C",[4],50.7%
same,"viability, T/C",[5],58.2%
same,"viability, T/C",[6],40.8%
same,"viability, T/C",[7],103%
same,"viability, T/C",[8],81.3%
same,"viability, T/C",[9],83.5%
same,"viability, T/C",[10],56.6%
same,"viability, T/C",[11],72.1%
same,"viability, T/C",[12],46.7%
same,"viability, T/C",[13],90.7%
same,"viability, T/C",[14],89.8%
same,"viability, T/C",[15],80.3%
same,"viability, T/C",[16],72%
same,"viability, T/C",[17],71.5%
same,"viability, T/C",[18],51.2%
same,"viability, T/C",[19],74.2%
same,"viability, T/C",[20],78.5%
same,"viability, T/C",[21],83.9%
same,"viability, T/C",[22],68.9%
same,"viability, T/C",[23],73.9%
same,"viability, T/C",[24],48.9%
same,"viability, T/C",[25],64.1%
same,"viability, T/C",[26],85.6%
same,"viability, T/C",[27],72.9%
same,"viability, T/C",[28],58.1%
same,"viability, T/C",[29],66.6%
same,"viability, T/C",[30],36.4%
same,"viability, T/C",[31],74%
same,"viability, T/C",[32],65.4%
same,"viability, T/C",[33],82.8%
same,"viability, T/C",[34],60.6%
same,"viability, T/C",[35],55.5%
same,"viability, T/C",[36],38.7%
